Results taken from ChEMBL document CHEMBL6103618, “Discovery of Novel Oxazolo[4,3-f]purine Derivatives as Antitumor Agents through PPIA Interaction” (J Med Chem, 2025).
The source made the active and inactive calls. The rule behind the calls is not given here.

How the values were obtained:
[1] = tested on: HCT-116; assay: Induction of apoptosis in human HCT-116 cells at 1.2 uM in presence of NAC by Annexin V-FITC/PI staining based flow cytometry; type: functional, cell-based
[2] = tested on: MCF7; assay: Antiproliferative activity against human MCF7 cells assessed as inhibition of cell viability incubated for 48 hrs by CCK8 assay; type: functional, cell-based; conditions: MCF7, 48 h
[3] = tested on: CT26; assay: Antiproliferative activity against mouse CT26 cells assessed as inhibition of cell viability incubated for 48 hrs by CCK8 assay; type: functional, cell-based; conditions: CT26, 48 h
[4] = tested on: PANC-1; assay: Antiproliferative activity against human PANC-1 cells assessed as inhibition of cell viability incubated for 48 hrs by CCK8 assay; type: functional, cell-based; conditions: PANC-1, 48 h
[5] = tested on: HepG2; assay: Antiproliferative activity against human HepG2 cells assessed as inhibition of cell viability incubated for 48 hrs by CCK8 assay; type: functional, cell-based; conditions: HepG2, 48 h
[6] = tested on: HCT-116; assay: Antiproliferative activity against human HCT-116 cells at 0.3 to 1.2 uM incubated for 48 hrs by EdU uptake assay; type: functional, cell-based; conditions: dose 0.3-1.2 µM
[7] = tested on: HCT-116; assay: Anti-migration activity in human HCT-116 cells incubated for 24 hrs by wound healing assay; type: functional, cell-based; conditions: dose 0.3-1.2 µM
[8] = tested on: HCT-116; assay: Induction of cell cycle arrest in human HCT-116 cells assessed as accumulation at G2 phase at 0.3 uM incubated for 48 hrs by PI staining based flow cytometry (reference value: 6.08 %); type: functional
[9] = tested on: HCT-116; assay: Induction of cell cycle arrest in human HCT-116 cells assessed as accumulation at G1 phase at 0.6 uM incubated for 48 hrs by PI staining based flow cytometry (reference value: 59.37 %); type: functional
[10] = tested on: HCT-116; assay: Induction of cell cycle arrest in human HCT-116 cells assessed as accumulation at G2 phase at 0.6 uM incubated for 48 hrs by PI staining based flow cytometry (reference value: 6.08 %); type: functional
[11] = tested on: HCT-116; assay: Induction of cell cycle arrest in human HCT-116 cells assessed as accumulation at G1 phase at 1.2 uM incubated for 48 hrs by PI staining based flow cytometry (reference value: 59.37 %); type: functional
[12] = tested on: HCT-116; assay: Induction of cell cycle arrest in human HCT-116 cells assessed as accumulation at S phase at 1.2 uM incubated for 48 hrs by PI staining based flow cytometry (reference value: 34.55 %); type: functional
[13] = tested on: HCT-116; assay: Induction of apoptosis in human HCT-116 cells assessed as viable cells at 0.6 uM incubated for 48 hrs by Annexin V-FITC/PI staining based flow cytometry (reference value: 96.2 %); type: functional; conditions: read-out: Activity
[14] = tested on: HCT-116; assay: Induction of apoptosis in human HCT-116 cells assessed as viable cells at 1.2 uM incubated for 48 hrs by Annexin V-FITC/PI staining based flow cytometry (reference value: 96.2 %); type: functional; conditions: read-out: Activity
[15] = tested on: HCT-116; assay: Induction of apoptosis in human HCT-116 cells assessed as late apoptotic cells at 1.2 uM incubated for 48 hrs by Annexin V-FITC/PI staining based flow cytometry (reference value: 1.55 %); type: functional
[16] = tested on: HCT-116; assay: Induction of cell cycle arrest in human HCT-116 cells assessed as decrease in CDK4 level incubated for 48 hrs by Western blot analysis; type: functional, cell-based; conditions: dose 0.3-1.2 µM
[17] = tested on: HCT-116; assay: Induction of apoptosis in human HCT-116 cells assessed as increase in Bax level at 0.3 to 1.2 uM incubated for 48 hrs by Western blot analysis; type: functional, cell-based; conditions: dose 0.3-1.2 µM
[18] = tested on: HCT-116; assay: Inhibition of cell viability in human HCT-116 cells at 0.3 to 1.2 uM incubated for 48 hrs in presence of NAC; type: functional, cell-based; conditions: dose 0.3-1.2 µM
[19] = tested on: HCT-116; assay: Induction of DNA damage in human HCT-116 cells assessed as increase in orange fluorescence incubated for 48 hrs by AO staining based analysis; type: functional, cell-based; conditions: dose 0.3-1.2 µM
[20] = tested on: HCT-116; assay: Induction of ER stress in human HCT-116 cells assessed as increase in ATF4 level at 0.3 to 1.2 uM by Western blot analysis; type: functional, cell-based; conditions: dose 0.3-1.2 µM
[21] = tested on: HCT-116; assay: Induction of ER stress in human HCT-116 cells assessed as increase in CHOP level at 0.3 to 1.2 uM by Western blot analysis; type: functional, cell-based; conditions: dose 0.3-1.2 µM
[22] = tested on: HCT-116; assay: Induction of mitochondrial dysfunction in human HCT-116 cells at 0.3 to 1.2 uM incubated for 48 hrs by Mito-Tracker Green probe based analysis; type: functional, cell-based; conditions: dose 0.3-1.2 µM
[23] = tested on: HCT-116; assay: Induction of mitochondrial dysfunction in human HCT-116 cells at 0.3 to 1.2 uM by JC-1 dye based analysis; type: functional, cell-based; conditions: dose 0.3-1.2 µM
[24] = target: T1, Peptidyl-prolyl cis-trans isomerase A (Homo sapiens, UniProt P62937); assay: Binding affinity to PPIA in human HCT-116 cells assessed as increase in thermal stability at 16 uM incubated for 30 mins followed by heat exposure at 40 to 60 degreeC for 3 mins by CETSA; type: cell-based; conditions: time 33.0 min
Target sequence in this assay (P62937 whole entry, looked up): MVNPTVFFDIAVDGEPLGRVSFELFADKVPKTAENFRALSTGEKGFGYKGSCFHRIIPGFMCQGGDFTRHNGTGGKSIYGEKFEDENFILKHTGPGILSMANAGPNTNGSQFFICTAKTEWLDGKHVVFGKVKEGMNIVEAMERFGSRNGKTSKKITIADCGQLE

[25] = target: T1, Peptidyl-prolyl cis-trans isomerase A; assay: Binding affinity to CM5 chip-immobilized PPIA (unknown origin) assessed as dissociation constant by SPR analysis
Target sequence in this assay (P62937 whole entry): as the sequence (P62937 whole entry, looked up) above

[26] = species on record: Homo sapiens; assay: Disruption of PPIA/CD147 (unknown origin) interaction by Co-IP assay
[27] = tested on: HCT-116; assay: Induction of intracellular ROS generation in human HCT-116 cells harboring siNC at 1.2 uM by flow cytometry (reference value: 8.22 %); type: functional
[28] = tested on: HCT-116; assay: Induction of intracellular ROS generation in human HCT-116 cells harboring siPPIA-3 at 1.2 uM by flow cytometry (reference value: 15.4 %); type: functional
[29] = tested on: HCT-116; assay: Induction of apoptosis in human HCT-116 cells harboring siPPIA-3 assessed as viable cells at 1.2 uM by Annexin V-FITC/PI staining based flow cytometry (reference value: 87.9 %); type: functional; conditions: read-out: Activity
[30] = Acute toxicity in BALB/c mouse assessed as lethal dose administered intraperitoneally measured for 14 days; conditions: in vivo, route ip, time 14 day
[31] = Acute toxicity in BALB/c mouse assessed as death rate at 350 mg/kg, ip measured for 14 days; type: organism-based; conditions: both, in vivo, time 14 day, read-out: Activity
[32] = Acute toxicity in BALB/c mouse assessed as death rate at 700 mg/kg, ip measured for 14 days; type: organism-based; conditions: both, in vivo, time 14 day, read-out: Activity
[33] = tested on: CT26; assay: Antitumor activity against mouse CT26 cells implanted in BALB/c mouse assessed as tumor growth inhibition administered intraperitoneally once daily for 14 days; type: functional; conditions: dose 15-45 mg/kg, route ip, time 14.0 day
[34] = tested on: CT26; assay: Antitumor activity against mouse CT26 cells implanted in BALB/c mouse assessed as reduction in tumor volume administered intraperitoneally once daily for 14 days; type: functional; conditions: dose 15-45 mg/kg, route ip, time 14.0 day
[35] = Toxicity in BALB/c mouse implanted with mouse CT26 cells assessed as change in body weight at 15 to 45 mg/kg, ip qd treated for 14 days; type: organism-based; conditions: in vivo, 336 h, dose 15-45 mg/kg, time 14 day
[36] = tested on: CT26; assay: Antitumor activity against mouse CT26 cells implanted in BALB/c mouse assessed as necrosis in tumor tissue at 15 to 45 mg/kg, ip qd treated for 14 days by H and E staining based analysis; type: functional, organism-based; conditions: dose 15-45 mg/kg, time 14.0 day
[37] = Toxicity in BALB/c mouse implanted with mouse CT26 cells assessed as abnormality in kidney at 15 to 45 mg/kg, ip qd treated for 14 days by H and E staining based analysis; type: organism-based; conditions: in vivo, 336 h, dose 15-45 mg/kg, time 14 day

In the case of `C=C(C(=O)OC)N1c2nc(Cl)nc(Cl)c2N2C(c3ccccc3F)OC(C(=O)OCC)(C(=O)OCC)C12` (racemic), the Activity [1] is reported as “inactive”, the IC50 [2] is reported as 1190 nM and the IC50 [3] is reported as 860 nM. The IC50 [4] was 3310 nM, the IC50 [5] was 2160 nM and the Activity [6] was “Active”. The Activity [7] was “Dose-dependent-effect”, the Activity [8] was 6.26% and the Activity [9] was 66.32%. It also gave an Activity [10] of 4.71%, an Activity [11] of 69.07% and an Activity [12] of 28.16%. For the same compound, the viability at 0.6 µM [13] was 77.5%, the viability at 1.2 µM [14] was 68% and the Activity [15] was 8.35%. The Activity [16] was “Dose-dependent-effect”, the Activity [17] was “Active” and the inhibition [18] was “inactive”. The Activity [19] was “Dose-dependent-effect”, the Activity [20] was “Active” and the Activity [21] was “Active”. The Activity [22] was “Active”, the Activity [23] was “Active” and the Activity [24] was “Active; Activity Similar To Csa”. The Kd [25] was 520 nM, the Activity [26] was “Active” and the Activity [27] was 22.9%. For the same compound, the Activity [28] was 16.8%, the viability at 1.2 µM [29] was 87% and the LD50 at 336 h [30] was 453 mg/kg. The mortality at 336 h [31] was 20%, the mortality at 336 h [32] was 100% and the inhibition [33] was “Dose-dependent-effect”. The Activity [34] was “Dose-dependent-effect”, the Activity [35] was “Non-toxic” and the Activity [36] was “Active”. For the same compound, the Activity [37] was “Non-toxic”.
